# Results as given in US20120208852A1, “Heterocyclic-substituted 2-acetamido-5-aryl-1,2,4-triazolones and use thereof” (BAYER PHARMA AKTIENGESELLSCHAFT, priority 2009, published 2012).
# Columns and labels:
# human V2 receptor = molecular target: T1, human V2 receptor (Homo sapiens, UniProt P30518); assay: Cellular in vitro assay for vasopressin receptor activity (aequorin luminescence), hV2; type: cell-based; settings: CHO cell line transfected with the human V2 receptor and Gα16, agonist [Arg8]-vasopressin
# T1 construct: Galpha16 (possible fusion partner; the text says either independent or a fusion gene); expressed in transfected cells; host or cells: CHO K1 (constitutively expressing modified aequorin, co-transfected with Gα16)
# T1 sequence (P30518 whole entry, the tested form may be a part): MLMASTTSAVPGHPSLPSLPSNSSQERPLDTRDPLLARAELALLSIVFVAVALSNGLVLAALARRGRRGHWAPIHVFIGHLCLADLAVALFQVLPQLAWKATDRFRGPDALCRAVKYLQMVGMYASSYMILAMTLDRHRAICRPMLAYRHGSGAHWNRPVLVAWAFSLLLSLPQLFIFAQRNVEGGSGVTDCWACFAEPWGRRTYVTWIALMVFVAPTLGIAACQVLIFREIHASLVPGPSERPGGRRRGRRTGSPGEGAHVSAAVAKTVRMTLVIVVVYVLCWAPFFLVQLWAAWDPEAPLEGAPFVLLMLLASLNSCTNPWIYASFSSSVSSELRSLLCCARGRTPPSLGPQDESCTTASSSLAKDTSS
# Source text: (§1) B-1. Cellular In Vitro Assay for Determining the Vasopressin Receptor Activity
# (§2) The identification of agonists and antagonists of the V1a and V2 vasopressin receptors from humans and rats and also the quantification of the activity of the substances described here took place using recombinant cell lines. These cells derive originally from a hamster ovary epithelial cell (Chinese Hamster Ovary, CHO K1, ATCC: American Type Culture Collection, Manassas, Va. 20108, USA). The test cell lines constitutively express a modified form of the calcium-sensitive photoprotein aequorin, which, after reconstitution with the cofactor coelenterazine, emits light when there are increases in the free calcium concentration (Rizzuto R., Simpson A. W., Brini M., Pozzan T.; Nature 358 (1992) 325-327). In addition, the cells are stably transfected with the human or rat V1a or V2 receptors. In the case of the Gs-coupling V2 receptors, the cells are stably transfected with a further gene, which codes for the promiscuous Gα16 protein (Amatruda T. T., Steele D. A., Slepak V. Z., Simon M. I., Proc. Nat. Acad. Sci. USA 88 (1991), 5587-5591), either independently or as a fusion gene. The resulting vasopressin receptor test cells react to stimulation of the recombinantly expressed vasopressin receptors by intracellular release of calcium ions, which can be quantified by the resulting aequorin luminescence using a suitable luminometer (Milligan G., Marshall F., Rees S., Trends in Pharmaco. Sci. 17 (1996) 235-237).
# (§3) Test procedure: On the day before the assay, the cells are plated out in culture medium (DMEM, 10% FCS, 2 mM glutamine, 10 mM HEPES) in 384-well microtiter plates and kept in a cell incubator (96% humidity, 5% v/v carbon dioxide, 37° C.). On the day of the assay, the culture medium is replaced by a Tyrode solution (140 mM sodium chloride, 5 mM potassium chloride, 1 mM magnesium chloride, 2 mM calcium chloride, 20 mM glucose, 20 mM HEPES), which additionally contains the cofactor coelenterazine (50 μM), and the microtiter plate is then incubated for a further 3-4 hours. The test substances in various concentrations are placed for 10 to 20 minutes in the wells of the microtiter plate before the agonist [Arg8]-vasopressin is added, and the resulting light signal is measured immediately in the luminometer. The IC50 values are calculated using the GraphPad PRISM computer program (Version 3.02).
# (§4) The table below lists representative IC50 values for the compounds of the invention on the cell line transfected with the human V1a or V2 receptor: […]
# human V1a receptor = molecular target: T2, human V1a receptor (Homo sapiens, UniProt P37288); assay: Cellular in vitro assay for vasopressin receptor activity (aequorin luminescence), hV1a; type: cell-based; settings: CHO cell line transfected with the human V1a receptor, agonist [Arg8]-vasopressin
# T2 construct: expressed in transfected cells; host or cells: CHO K1 (constitutively expressing modified aequorin)
# T2 sequence (P37288 whole entry): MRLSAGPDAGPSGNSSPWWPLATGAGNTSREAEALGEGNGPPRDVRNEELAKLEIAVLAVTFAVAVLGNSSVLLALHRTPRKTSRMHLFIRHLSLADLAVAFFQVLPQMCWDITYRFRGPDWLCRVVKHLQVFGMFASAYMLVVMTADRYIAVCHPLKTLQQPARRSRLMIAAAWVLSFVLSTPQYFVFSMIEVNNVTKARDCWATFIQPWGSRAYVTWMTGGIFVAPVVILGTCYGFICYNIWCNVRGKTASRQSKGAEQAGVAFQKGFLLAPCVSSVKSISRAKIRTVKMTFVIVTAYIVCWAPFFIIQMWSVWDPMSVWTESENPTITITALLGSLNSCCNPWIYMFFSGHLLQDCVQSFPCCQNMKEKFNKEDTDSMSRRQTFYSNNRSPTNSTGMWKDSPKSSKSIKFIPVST
# Source text: as §1, §2, §3, §4
Compound,IC50 (human V2 receptor),IC50 (human V1a receptor)
"C[C@@](NC(=O)Cn1nc(-c2ccc(Cl)cc2)n(C[C@H](O)C(F)(F)F)c1=O)(c1cccc(C(F)(F)F)c1)c1nnn[nH]1 [Example 4, 2-{3-(4-Chlorophenyl)-5-oxo-4-[(2S)-3,3,3-trifluoro-2-hydroxypropyl]-4,5-dihydro-1H-1,2,4-triazol-1-yl}-N-{(1R)-1-(1H-tetrazol-5-yl)-1-[3-(trifluoromethyl)phenyl]ethyl}acetamide]",3.3 nM,8.3 nM
"COc1cccc(C(NC(=O)Cn2nc(-c3ccc(Cl)cc3)n(C[C@H](O)C(F)(F)F)c2=O)c2cccc(C(F)(F)F)c2)n1 (single isomer, unassigned) [Example 19]",7.1 nM,4.6 nM
"COc1cccc(C(NC(=O)Cn2nc(-c3ccc(Cl)cc3)n(C[C@H](O)C(F)(F)F)c2=O)c2cccc(C(F)(F)F)c2)n1 (single isomer, unassigned) [Example 18]",91 nM,32 nM
"Cc1noc([C@](C)(NC(=O)Cn2nc(-c3ccc(Cl)cc3)n(C[C@H](O)C(F)(F)F)c2=O)c2cccc(C(F)(F)F)c2)n1 [Example 3, 2-{3-(4-Chlorophenyl)-5-oxo-4-[(2S)-3,3,3-trifluoro-2-hydroxypropyl]-4,5-dihydro-1H-1,2,4-triazol-1-yl}-N-{(1R)-1-(3-methyl-1,2,4-oxadiazol-5-yl)-1-[3-(trifluoro-methyl)phenyl]ethyl}acetamide]",3.2 nM,6.5 nM
